# In US20140179795A1, “Agent for Stabilizing Acetaminophen” (priority 2010, published 2014):
# Columns and labels:
# [1] = Stability under high-temperature and high-pressure conditions (121° C., 1 hour): color tone, precipitation, related substances by HPLC; assay type: physicochemical; design: key to Color tone: +++: deep brown; ++: slightly deep brown; +: light brown; ±: very little discoloration; −: no discoloration; key to Precipitation: +: visible precipitates; −: no precipitates; conditions: 1 w/v % acetaminophen, 5 w/v % xylitol, pH 5, 1-hour treatment; for Total amount of related substances (%): HPLC peak area 225 nm
# Protocol: Aqueous compositions containing glycine at the concentrations shown in Table 1 below, 1 w/v % acetaminophen, 5 w/v % xylitol and phosphoric acid (q.s.) and having the pH of 5 were heat-treated at 121° C. for 1 hour, and subsequently visually observed in terms of the color tone (the degree of discoloration) and the presence of precipitates.
# In addition, the concentration of acetaminophen-related substances in each aqueous composition was determined by HPLC. The HPLC conditions were as follows.
# (§1) The analysis was performed using liquid chromatography as described in the purity test of acetaminophen (related substances) prescribed in the manual of the Japanese pharmacopoeia, 15th edition. That is, each solution was subjected to HPLC using an octadecyl silica gel column and a mobile phase prepared by mixing methanol and a potassium dihydrogen phosphate solution, the peak areas at the detection wavelength of 225 nm were determined by an automatic integration method, and the percentage of the summed peak areas of the related substances to the total area of all peaks (total amount of related substances (%)) was calculated.
# [2] = Effects of pH on stability under extreme conditions (60° C., 21-day storage); assay type: physicochemical; design: key to Color tone: +++: deep brown; ++: slightly deep brown; +: light brown; ±: very little discoloration; −: no discoloration; key to Precipitation: +: visible precipitates; −: no precipitates; conditions: 0.56 w/v % glycine, 0.22 w/v % citric acid, 0.9 w/v % NaCl; for Total amount of related substances (%): HPLC
# Protocol: as §1
# Aqueous solutions with the pHs shown in Table 4 below were prepared by mixing 1 w/v % of acetaminophen, 0.56 w/v % of glycine, 0.22 w/v % of citric acid, 0.9 w/v % of NaCl, and NaOH or H3PO4 (q.s.). The aqueous solutions were autoclaved at 121° C. for 20 minutes and then stored at 60° C. for 21 days. Subsequently, the aqueous solutions were visually observed in terms of the color tone (the degree of discoloration) and the presence of precipitates. In addition, the concentration of acetaminophen-related substances in each aqueous solution was determined by HPLC.
smiles,measurement,setting,value
"CC(=O)Nc1ccc(O)cc1 [acetaminophen, N-(4-hydroxyphenyl)acetamide]",Color tone,[1]; glycine 0 w/v %,+
same,Precipitation,[1]; glycine 0 w/v %,−
same,Total amount of related substances (%),[1]; glycine 0 w/v %,0.33%
same,Color tone,[1]; glycine 0.14 w/v %,−
same,Precipitation,[1]; glycine 0.14 w/v %,−
same,Total amount of related substances (%),[1]; glycine 0.14 w/v %,0.03%
same,Color tone,[1]; glycine 0.28 w/v %,−
same,Precipitation,[1]; glycine 0.28 w/v %,−
same,Total amount of related substances (%),[1]; glycine 0.28 w/v %,0.01%
same,Color tone,[1]; glycine 0.56 w/v %,−
same,Precipitation,[1]; glycine 0.56 w/v %,−
same,Total amount of related substances (%),[1]; glycine 0.56 w/v %,0%
same,Color tone,"[2]; pH 2, 1 w/v % acetaminophen",+++
same,Precipitation,"[2]; pH 2, 1 w/v % acetaminophen",+
same,Total amount of related substances (%),"[2]; pH 2, 1 w/v % acetaminophen",12.18%
same,Color tone,"[2]; pH 3, 1 w/v % acetaminophen",++
same,Precipitation,"[2]; pH 3, 1 w/v % acetaminophen",+
same,Total amount of related substances (%),"[2]; pH 3, 1 w/v % acetaminophen",5.44%
same,Color tone,"[2]; pH 4, 1 w/v % acetaminophen",±
same,Precipitation,"[2]; pH 4, 1 w/v % acetaminophen",+
same,Total amount of related substances (%),"[2]; pH 4, 1 w/v % acetaminophen",0.8%
same,Color tone,"[2]; pH 5, 1 w/v % acetaminophen",±
same,Precipitation,"[2]; pH 5, 1 w/v % acetaminophen",−
same,Total amount of related substances (%),"[2]; pH 5, 1 w/v % acetaminophen",0.05%
same,Color tone,"[2]; pH 6, 1 w/v % acetaminophen",+
same,Precipitation,"[2]; pH 6, 1 w/v % acetaminophen",−
same,Total amount of related substances (%),"[2]; pH 6, 1 w/v % acetaminophen",0.05%
same,Color tone,"[2]; pH 7, 1 w/v % acetaminophen",++
same,Precipitation,"[2]; pH 7, 1 w/v % acetaminophen",−
same,Total amount of related substances (%),"[2]; pH 7, 1 w/v % acetaminophen",0.06%
same,Color tone,"[2]; pH 8, 1 w/v % acetaminophen",+++
same,Precipitation,"[2]; pH 8, 1 w/v % acetaminophen",+
same,Total amount of related substances (%),"[2]; pH 8, 1 w/v % acetaminophen",0.07%
